Structures can show the parent of a compound that is named as a salt.

This assay deals with KB cells. Description: Cytotoxicity against KB cells (crystal violet dying method). Format: cell-based. As to conditions: Homo sapiens; KB cells, 72 hours, 50% proliferation inhibition; read-out: Cytotoxicity [IC50 (μM)]. The method, then: Test 1 Cytotoxicity against KB cells
The residue was re-suspended in an MEM medium containing 10% fetal bovine serum. Then, an equivalent amount of a 0.2% trypan blue solution was added to a portion of the cell suspension, followed by mixing. The number of living cells which had not been dyed with the trypan blue was counted by a hemocytometer and the suspension was diluted and adjusted with the above-described culture medium to give a cell concentration of 1×10^4 cells/ml. Each well of a 96-well plate was inoculated with a 100-μl portion of the resulting suspension, in other words, was inoculated to give a concentration of 1×10^3 cells/well.
To the cells cultured in a CO2 incubator for 24 hours after the inoculation was added 100 μl/well of a medicament solution, followed by culturing for 72 hours. To a control was added 100 μl of an MEM medium.
The cytotoxicity of the medicament was determined from a change in the number of the cells by using the crystal violet dying method.
After washing the plate with water, 100 μl/well of a 0.05% crystal violet solution dissolved in 20% methanol was added to dye the cells therewith for about 15 minutes. The plate was washed to remove the unbound crystal violet, followed by the addition of 100 μl/well of 0.05M NaH2 PO4 /ethanol (1:1 v/v), whereby the crystal violet bound to the cellular protein was extracted.

As a reminder, the IC50 is the concentration that inhibits the measured activity by half. Take `CN(C)CCCNC(=O)c1cc(C(=O)NCCNCCN2C(=O)c3cccc4cc([N+](=O)[O-])cc(c34)C2=O)cc(N2C(=O)c3cccc4cc([N+](=O)[O-])cc(c34)C2=O)c1` [Example 41, 1-[N-(3-dimethylaminopropyl)carbamoyl]-3-(3-nitro-1,8-naphthalimido)-5-[N-[2-[[2-(3-nitro-1,8-naphthalimido)ethyl]amino]ethyl]carbamoyl]benzene hydrochloride]: the IC50 turned out to be 3.1 µM.
As to `O=C(NCCNCCNC(=O)c1cnc2ccccc2c1)c1cc(C(=O)NCCNCCN2C(=O)c3cccc4cc([N+](=O)[O-])cc(c34)C2=O)cc(N2C(=O)c3cccc4cc([N+](=O)[O-])cc(c34)C2=O)c1` [Example 13, 1-(3-nitro-1,8-naphthalimido)-3-[N-[2-[[2-(3-nitro-1,8-naphthalimido)ethyl]amino]ethyl]carbamoyl]-5-[N-[2-[[2-(quinoline-3-carbonylamino)ethyl]amino]ethyl]carbamoyl]benzene trihydrochloride], the IC50 came to 1.6 µM.
The value for `O=C(NCCCNCCCN1C(=O)c2cccc3cc([N+](=O)[O-])cc(c23)C1=O)c1cc(C(=O)NCCCNCCCN2C(=O)c3cccc4cc([N+](=O)[O-])cc(c34)C2=O)cc(N2C(=O)c3cccc4cc([N+](=O)[O-])cc(c34)C2=O)c1` [Example 11, 1,3-bis[N-[3-[[3-(3-nitro-1,8-naphthalimido)propyl]amino]propyl]carbamoyl]-5-(3-nitro-1,8-naphthalimido)benzene dihydrochloride] was 0.14 µM; that for `CN(C)CCNC(=O)c1cc(C(=O)NCCNCCN2C(=O)c3cccc4cc([N+](=O)[O-])cc(c34)C2=O)cc(N2C(=O)c3cccc4cc([N+](=O)[O-])cc(c34)C2=O)c1` [Example 42, 1-[N-(2-dimethylaminoethyl)carbamoyl]-3-(3-nitro-1,8-naphthalimido)-5-[N-[2-[[2-(3-nitro-1,8-naphthalimido)ethyl]amino]ethyl]carbamoyl]benzene hydrochloride] was 0.15 µM.
Next, `O=C(NCCNCCN1C(=O)c2cccc3cc([N+](=O)[O-])cc(c23)C1=O)c1cc(C(=O)NCCNCCN2C(=O)c3cccc4cc([N+](=O)[O-])cc(c34)C2=O)cc(N2C(=O)c3cccc4cccc(c34)C2=O)c1` [Example 2, 1,3-bis[N-[2-[[2-(3-nitro-1,8-naphthalimido)ethyl]amino]ethyl]carbamoyl]-5(1,8-naphthalimido)benzene dimethanesulfonate]: 0.0061 µM; `O=C(NCCNCCN1C(=O)c2cccc3cc([N+](=O)[O-])cc(c23)C1=O)c1cc(C(=O)NCCN2CCCC2)cc(N2C(=O)c3cccc4cc([N+](=O)[O-])cc(c34)C2=O)c1` [Example 45, 1-(3-nitro-1,8-naphthalimido)-3-[N-[2-[[2-(3-nitro-1,8-naphthalimido)ethyl]amino]ethyl]carbamoyl]-5-[N-(2-pyrrolidinoethyl)carbamoyl]benzene hydrochloride]: 0.066 µM; `CN1CCN(C(=O)c2cc(C(=O)NCCNCCN3C(=O)c4cccc5cc([N+](=O)[O-])cc(c45)C3=O)cc(N3C(=O)c4cccc5cccc(c45)C3=O)c2)CC1` [Example 50, 1-(4-methylpiperazino)carbonyl-3-(1,8-naphthalimido)-5-[N-[2-[[2-(3-nitro-1,8-naphthalimido)ethyl]amino]ethyl]carbamoyl]benzene hydrochloride]: 0.022 µM.
The value for `CCN1CCN(C(=O)c2cc(C(=O)NCCNCCN3C(=O)c4cccc5cccc(c45)C3=O)cc(N3C(=O)c4cccc5cc([N+](=O)[O-])cc(c45)C3=O)c2)CC1` [Example 53, 1-(4-ethylpiperazino)carbonyl-3-[N-[2-[[2-(1,8-naphthalimido)ethyl]amino]ethyl]carbamoyl]-5-(3-nitro-1,8-naphthalimido)benzene hydrochloride] was 0.013 µM; that for `O=C(NCCNCCN1C(=O)c2cccc3cc([N+](=O)[O-])cc(c23)C1=O)c1cc(C(=O)N2CCC(N3CCCCC3)CC2)cc(N2C(=O)c3cccc4cc([N+](=O)[O-])cc(c34)C2=O)c1` [Example 55, 1-(3-nitro-1,8-naphthalimido)-3-[N-[2-[[2-(3-nitro-1,8-naphthalimido)ethyl]amino]ethyl]carbamoyl]-5-(4-piperidinopiperidino)carbonylbenzene hydrochloride] was 0.11 µM; that for `O=C(NCCNCCN1C(=O)c2cccc3cccc(c23)C1=O)c1cc(C(=O)NCCN2CCCCC2)cc(N2C(=O)c3cccc4cc([N+](=O)[O-])cc(c34)C2=O)c1` [Example 47, 1-[N-[2-[[2-(1,8-naphthalimido)ethyl]amino]ethyl]carbamoyl]-3-(3-nitro-1,8-naphthalimido)-5-[N-(2-piperidinoethyl)carbamoyl]benzene hydrochloride] was 0.0035 µM.
Take `O=C(NCCNCCN1C(=O)c2cccc3cc([N+](=O)[O-])cc(c23)C1=O)c1cccc(N2C(=O)c3cccc4cc([N+](=O)[O-])cc(c34)C2=O)c1` [Example 39, 1-(3-nitro-1,8-naphthalimido)-3-[N-[2-[[2-(3-nitro-1,8-naphthalimido)ethyl]amino]ethyl]carbamoyl]benzene hydrochloride]: the IC50 worked out at 0.0053 µM.
Next, `O=C(NCCCNCCN1C(=O)c2cccc3cc([N+](=O)[O-])cc(c23)C1=O)c1cccc(N2C(=O)c3cccc4cc([N+](=O)[O-])cc(c34)C2=O)c1` [Example 40 (B), 1-(3-nitro-1,8-naphthalimido)-3-[N-[3-[[2-(3-nitro-1,8-naphthalimido)ethyl]amino]propyl]carbamoyl]benzene hydrochloride]: 0.00023 µM; `CN1CCN(C(=O)c2cc(C(=O)NCCNCCN3C(=O)c4cccc5cccc(c45)C3=O)cc(N3C(=O)c4cccc5cccc(c45)C3=O)c2)CC1` [Example 51, 1-(4-methylpiperazino)carbonyl-3-(1,8-naphthalimido)-5-[N-[2-[[2-(1,8-naphthalimido)ethyl]amino]ethyl]carbamoyl]benzene hydrochloride]: 0.025 µM.
On to `O=C(NCCNCCn1c2ccccc2c2ccncc21)c1cc(C(=O)NCCNCCn2c3ccccc3c3ccncc32)cc(N2C(=O)c3cccc4cc([N+](=O)[O-])cc(c34)C2=O)c1` [Example 3, 1,3-bis[N-[2-[[2-(pyrido[3,4-b]indol-9-yl)ethyl]amino]ethyl]carbamoyl]-1-(3-nitro-1,8-naphthalimido)benzene tetratrifluoroacetate], for which the IC50 is 2.6 µM.
Next, `CN(C)CCCNC(=O)c1cc(NC(=O)CCCNC(=O)c2cc(C(=O)NCCNCCN3C(=O)c4cccc5cc([N+](=O)[O-])cc(c45)C3=O)cc(N3C(=O)c4cccc5cc([N+](=O)[O-])cc(c45)C3=O)c2)cn1C` [Example 34, 1-[N-[3-[N-[2-[N-(3-dimethylaminopropyl)carbamoyl]-1-methylpyrrol-4-yl]carbamoyl]propyl]carbamoyl]-3-(3-nitro-1,8-naphthalimido)-5-[N-[2-[[2-(3-nitro-1,8-naphthalimido)ethyl]amino]ethyl]carbamoyl]benzene dihydrochloride]: 4.7 µM; `CN1CCN(C(=O)c2cc(C(=O)NCCNCCCN3C(=O)c4cccc5cc([N+](=O)[O-])cc(c45)C3=O)cc(N3C(=O)c4cccc5cc([N+](=O)[O-])cc(c45)C3=O)c2)CC1` [Example 56 (B), 1-(4-methylpiperazino)carbonyl-3-(3-nitro-1,8-naphthalimido)-5-[N-[2-[[3-(3-nitro-1,8-naphthalimido)propyl]amino]ethyl]carbamoyl]benzene hydrochloride]: 0.12 µM; `O=C(NCCNCCNC(=O)c1cnc2ccccc2n1)c1cc(C(=O)NCCNCCN2C(=O)c3cccc4cc([N+](=O)[O-])cc(c34)C2=O)cc(N2C(=O)c3cccc4cc([N+](=O)[O-])cc(c34)C2=O)c1` [Example 15, 1-(3-nitro-1,8-naphthalimido)-3-[N-[2-[[2-(3-nitro-1,8-naphthalimido)ethyl]amino]ethyl]carbamoyl]-5-[N-[2-[[2-(quinoxaline-2-carbonylamino)ethyl]amino]ethyl]carbamoyl]benzene trihydrochloride]: 0.21 µM.
The value for `CN1CCN(C(=O)c2cc(C(=O)NCCCNCCN3C(=O)c4cccc5cc([N+](=O)[O-])cc(c45)C3=O)cc(N3C(=O)c4cccc5cc([N+](=O)[O-])cc(c45)C3=O)c2)CC1` [Example 56 (A), 1-(4-methylpiperazino)carbonyl-3-(3-nitro-1,8-naphthalimido)-5-[N-[3-[[2-(3-nitro-1,8-naphthalimido)ethyl]amino]propyl]carbamoyl]benzene hydrochloride] was 0.039 µM; that for `O=C(NCCNCCN1C(=O)c2cccc3cccc(c23)C1=O)c1cc(C(=O)NCCNCCN2C(=O)c3cccc4cccc(c34)C2=O)cc(N2C(=O)c3cccc4cc([N+](=O)[O-])cc(c34)C2=O)c1` [Example 6, 1,3-bis[N-[2-[[2-(1,8-naphthalimido)ethyl]amino]ethyl]carbamoyl]-5-(3-nitro-1,8-naphthalimido)benzene and dihydrochloride thereof] was 0.064 µM.
On to `O=C(NCCNCCNC(=O)c1ccnc2ccccc12)c1cc(C(=O)NCCNCCN2C(=O)c3cccc4cc([N+](=O)[O-])cc(c34)C2=O)cc(N2C(=O)c3cccc4cc([N+](=O)[O-])cc(c34)C2=O)c1` [Example 14, 1-(3-nitro-1,8-naphthalimido)-3-[N-[2-[[2-(3-nitro-1,8-naphthalimido)ethyl]amino]ethyl]carbamoyl]-5-[N-[2-[[2-(quinoline-4-carbonylamino)ethyl]amino]ethyl]carbamoyl]benzene trihydrochloride], for which the half-inhibitory concentration (IC50) came to 1.3 µM.

These data come from patent publication US6300331A, “Naphthalimidobenzamide derivatives” (Taiho Pharmaceutical Co., Ltd., priority 1998, dated 2001).
